According to US20220348878A1, “CELL PROLIFERATION INHIBITOR” (BOURBON CORPORATION, priority 2019, published 2022):

How the values were obtained:
Type in all cases: cell-based
Human fibroblast = experiment: Culture test with medium exchange every three days (Example 2), cell count; conditions: for Number of cells: Glutamic acid: 8 mM, average of three wells
Description: As the medium, the DMEM basal medium was used.
After cell culture, the cells were recovered using a 0.1% by weight trypsin/1 mM EDTA solution, and seeded on a 12-well plate (obtained from Corning Co., Ltd.), and cultured overnight at 37° C. in the presence of 5% CO2 using the above DMEM basal medium. […]
Note that the number of cells is an average of the numbers of cell counts in three wells, and the counts is measured by the following method.
(§1) After removing the culture supernatant of the cells by suction and washing the cells by using PBS, the cells were peeled off by using 0.1% trypsin/1 mM EDTA solution (FUJIFILM Wako Pure Chemical Corporation). The reaction of the releasing solution was stopped by adding the medium, and the cells were recovered. And then, the cell counts was conducted by using the Countess™ II Automated Cell Counter (Thermo Fisher Scientific).

[1] = system: Human mesenchymal stem cell; experiment: as above; conditions: for Number of cells: Glutamic acid: 8 mM, average of three wells
Description: (§2) Human mesenchymal stem cells (manufactured by Lonza, Catalog No. PT-5006) were cultured in a cell culture dish (100-mm culture dish, obtained from SANPLATEC CO., LTD.) coated with 10 μg/ml Fibronectin (Promocell) at 37° C. in the presence of 5% CO2, and used. As the medium, the DMEM basal medium was used.
(§3) After cell culture, the cells were recovered using a 0.1% by weight trypsin/1 mM EDTA solution, and seeded on a 12-well plate (obtained from Corning Co., Ltd.), and cultured overnight at 37° C. in the presence of 5% CO2 using the above DMEM basal medium.
(§4) The DMEM basal medium was replaced with the desired cell maintenance medium, and the cells were cultured (“Day 0 after culture”). No medium exchange was performed during the culture period.
The same culture test as in Example 1 was conducted except that the medium was exchanged every three days during the culture period.
Tables 1 to 2 indicate the number of cells for each culture day. […] Note that the number of cells is an average of the numbers of cell counts in three wells, and the counts is measured by the following method.
as §1

[2] = system: Human mesenchymal stem cell; experiment: as above; conditions: w/o Glc medium instead of w/Glc medium; Glutamic acid 8 mM; FIG. 3, Day 12
[3] = system: Human mesenchymal stem cells; experiment: Test for confirming cell proliferation inhibitory effect (Example 1), phase-contrast observation of cell state; conditions: Day 9, no medium exchange; for Cell state: number of dead cells and cell proliferation: 1 mM, 5 mM or 8 mM glutamic acid
Description: as §2, §3, §4
(§5) Further, the same culture test as described above was conducted except that 1 mM, 5 mM or 8 mM of glutamic acid was added to the basal medium for cell culture.

Human fibroblasts = experiment: as above; conditions: Day 9, no medium exchange; for Cell state: number of dead cells and cell proliferation: 1 mM, 5 mM or 8 mM glutamic acid
Description: Human fibroblasts (Catalog No. CC-2511) were cultured in a gelatin-coated cell culture dish (100-mm culture dish, obtained from SANPLATEC CO., LTD.) at 37° C. in the presence of 5% CO2, and used. As the medium, the DMEM basal medium was used.
as §3, §4, §5

[4] = glucose-free DMEM basal medium (w/o Glc)
[5] = xylose DMEM basal medium (w/Xy)

Question: Which results are given for `N[C@@H](CCC(=O)O)C(=O)O` [Glutamic acid, glutamic acid]?
Answer: Number of cells (Human fibroblast; Medium: w/G1c, Day 0): 0.07 ×10^5 cells/cm^2; Number of cells (Human fibroblast; Medium: w/G1c, Day 6): 0.56 ×10^5 cells/cm^2; Number of cells (Human fibroblast; Medium: w/G1c, Day 12): 1.46 ×10^5 cells/cm^2; Number of cells (Human fibroblast; Medium: w/G1c, Day 18): 1.72 ×10^5 cells/cm^2; Number of cells (Human fibroblast; Medium: w/Xy, Day 0): 0.07 ×10^5 cells/cm^2; Number of cells (Human fibroblast; Medium: w/Xy, Day 6): 0.37 ×10^5 cells/cm^2; Number of cells (Human fibroblast; Medium: w/Xy, Day 12): 1.13 ×10^5 cells/cm^2; Number of cells (Human fibroblast; Medium: w/Xy, Day 18): 1.28 ×10^5 cells/cm^2; Number of cells (Human fibroblast; Medium: w/o G1c, Day 0): 0.07 ×10^5 cells/cm^2; Number of cells (Human fibroblast; Medium: w/o G1c, Day 6): 0.27 ×10^5 cells/cm^2; Number of cells (Human fibroblast; Medium: w/o G1c, Day 12): 0.08 ×10^5 cells/cm^2; Cell proliferation inhibition compared with the control test with w/Glc medium (Human fibroblast; w/Glc medium, Glutamic acid 8 mM, from Table 1): the cell proliferation was inhibited till 6 days after; Cell proliferation inhibitory effect (Human fibroblast; w/Xy medium instead of w/Glc medium, Glutamic acid 8 mM, from Table 1): the cell proliferation inhibitory effect was remarkable, and it was possible to inhibit the cell proliferation for a longer period; Number of cells and dead cells (Human fibroblast; w/o Glc medium instead of w/Glc medium, Glutamic acid 8 mM, from Table 1): the number of cells after 12 days was remarkably less, and the dead cells occurred; Number of cells ([1]; Medium: w/Glc, Day 0): 0.356 ×10^4 cells/cm^2; Number of cells ([1]; Medium: w/Glc, Day 3): 1.12 ×10^4 cells/cm^2; Number of cells ([1]; Medium: w/Glc, Day 6): 2.96 ×10^4 cells/cm^2; Number of cells ([1]; Medium: w/Glc, Day 9): 3.23 ×10^4 cells/cm^2; Number of cells ([1]; Medium: w/Glc, Day 12): 3.75 ×10^4 cells/cm^2; Number of cells ([1]; Medium: w/Glc, Day 15): 4.46 ×10^4 cells/cm^2; Number of cells ([1]; Medium: w/Glc, Day 18): 5.37 ×10^4 cells/cm^2; Number of cells ([1]; Medium: w/Xy, Day 0): 0.356 ×10^4 cells/cm^2; Number of cells ([1]; Medium: w/Xy, Day 3): 0.855 ×10^4 cells/cm^2; Number of cells ([1]; Medium: w/Xy, Day 6): 0.998 ×10^4 cells/cm^2; Number of cells ([1]; Medium: w/Xy, Day 9): 1.65 ×10^4 cells/cm^2; Number of cells ([1]; Medium: w/Xy, Day 12): 1.87 ×10^4 cells/cm^2; Number of cells ([1]; Medium: w/Xy, Day 15): 2.77 ×10^4 cells/cm^2; Number of cells ([1]; Medium: w/Xy, Day 18): 3.90 ×10^4 cells/cm^2; Number of cells ([1]; Medium: w/o Glc, Day 0): 0.356 ×10^4 cells/cm^2; Number of cells ([1]; Medium: w/o Glc, Day 3): 0.591 ×10^4 cells/cm^2; Number of cells ([1]; Medium: w/o Glc, Day 6): 0.662 ×10^4 cells/cm^2; Number of cells ([1]; Medium: w/o Glc, Day 9): 1.06 ×10^4 cells/cm^2; Number of cells ([1]; Medium: w/o Glc, Day 12): 1.04 ×10^4 cells/cm^2; Number of cells ([1]; Medium: w/o Glc, Day 15): 1.50 ×10^4 cells/cm^2; Number of cells ([1]; Medium: w/o Glc, Day 18): 1.58 ×10^4 cells/cm^2; Cell proliferation inhibition compared with the control test with w/Glc medium ([1]; w/Glc medium, Glutamic acid 8 mM, from Table 2): it was possible to inhibit the cell proliferation till 18 days after; Cell proliferation inhibitory effect ([1]; w/Xy medium instead of w/Glc medium, Glutamic acid 8 mM, from Table 2): the cell proliferation inhibitory effect was remarkable; Condition of cells (whitening around cells) [2]: the ratio of whitening around cells ware large, and the conditions of cells deteriorated; Cell state: number of dead cells and cell proliferation [3, 4]: the number of dead cells decreased and cell proliferation was inhibited as the glutamic acid concentration increased; Dead cells observed ([3]; w/Xy, glutamic acid concentration 5 to 8 mM): dead cells were hardly observed; Cell state: number of dead cells and cell proliferation [3, 5]: the number of dead cells decreased and cell proliferation was inhibited as the glutamic acid concentration increased; Cell state: number of dead cells and cell proliferation (Human fibroblasts; [4]): the number of dead cells decreased and cell proliferation was inhibited as the glutamic acid concentration increased; Dead cells observed (Human fibroblasts; w/Xy, glutamic acid concentration 1 to 8 mM): dead cells were hardly observed; Cell state: number of dead cells and cell proliferation (Human fibroblasts; [5]): the number of dead cells decreased and cell proliferation was inhibited as the glutamic acid concentration increased
